Read-outs that look alike come from different tables or passages of the source.
Assays:
[1] = tested on: Haemonchus contortus; assay: Haemonchus contortus - Test (HAEMCO); format: in vivo; details: after 5 days, 100% = all larvae killed
Description: Haemonchus contortus—Test (HAEMCO)
(§1) Solvent: dimethyl sulfoxide
(§2) To produce a suitable preparation of active compound, 10 mg of active compound are dissolved in 0.5 ml solvent, and the concentrate is diluted with “Ringer's solution” to the desired concentration.
Approximately 40 larvae of the red stomach worm (Haemonchus contortus) are transferred into a test tube containing compound solution.
After 5 days percentage of larval mortality is recorded. 100% efficacy means all larvae are killed, 0% efficacy means no larvae are killed.

[2] = tested on: Cooperia curticei; format: in vivo; details: after 5 days, 100% = all larvae killed
Description: Cooperia curticei—Test (COOPCU)
as §1, §2
Approximately 40 nematode larvae (Cooperia curticei) are transferred into a test tube containing the compound solution.
After 5 days percentage of larval mortality is recorded. 100% efficacy means all larvae are killed; 0% efficacy means no larvae are killed.

[3] = Measurement of log P values by HPLC on reversed phase columns (EEC directive 79/831 Annex V.A8; methods [a] pH 2.3, [b] pH 2.7, [c] pH 7.8); format: physicochemical
[4] = tested on: Meloidogyne incognita; assay: Meloidogyne incognita - test (MELGIN); format: in vivo; details: 20 ppm; salad seedlings in sand; after 14 days; 100% = no galls found
Description: Meloidogyne incognita—test (MELGIN)
Solvent: 125.0 parts by weight of acetone
To produce a suitable preparation of active compound, 1 part by weight of active compound is mixed with the stated amount of solvent, and the concentrate is diluted with water to the desired concentration.
Vessels are filled with sand, a solution of the active ingredient, a suspension containing eggs and larvae of the southern root-knot nematode (Meloidogyne incognita) and salad seeds. The salad seeds germinate and the seedlings grow. Galls develop in the roots.
After 14 days the nematicidal activity is determined on the basis of the percentage of gall formation. 100% means that no galls were found; 0% means the number of galls found on the roots of the treated plants was equal to that in untreated control plants.

[5] = tested on: Boophilus microplus; assay: Boophilus microplus - Injectiontest (BOOPMI Inj); format: in vivo; details: 20 μg/animal injected into adult engorged female ticks; after 7 days; 100% = all eggs infertile
Description: Boophilus microplus—Injectiontest (BOOPMI Inj)
as §1
To produce a suitable preparation of active compound, 10 mg of active compound are dissolved in 0.5 ml solvent, and the concentrate is diluted with solvent to the desired concentration.
Five adult engorged female ticks (Boophilus microplus) are injected with 1 μl compound solution into the abdomen. Ticks are transferred into replica plates and incubated in a climate chamber.
After 7 days the egg deposition of fertile eggs is monitored. Eggs where fertility is not visible are stored in a climate chamber till hatching after about 42 days. An efficacy of 100% means all eggs are infertile; 0% means all eggs are fertile.

[6] = method [b]: LC-MS, pH 2.7, 0.1% formic acid in water / acetonitrile
[7] = method [a]: HPLC, pH 2.3, 0.1% phosphoric acid / acetonitrile
[8] = method [b]: LC-MS at pH 2.7, 0.1% formic acid in water / acetonitrile
[9] = method [c]: LC-MS at pH 7.8, 0.001 molar ammonium hydrogen carbonate in water / acetonitrile
[10] = method [c]: LC-MS, pH 7.8, 0.001 molar ammonium hydrogen carbonate / acetonitrile

SMILES	activity (efficacy: larval mortality) ([1]; 20 ppm)	activity (efficacy: larval mortality) ([2]; 20 ppm)	nematicidal activity (percentage of gall formation) [4]	log P [3, 8]	log P [3, 9]	further results
COC(c1ccc(Cl)cc1)C(C)NC(=O)c1ccoc1I (stereo not shown) [Compound 64]	100%	80%	–	–	–	logP [3, 6]: 3.28^[b]
COC(c1ccc(Cl)cc1Cl)C(C)NC(=O)c1ccccc1C(F)(F)F (stereo not shown) [Compound 35]	–	–	90%	–	–	activity (efficacy: larval mortality) ([1]; 100 ppm): 100%; logP [3, 7]: 3.90^[a]
CCOC(c1ccc(Cl)cc1Cl)C(C)NC(=O)c1ccsc1I (stereo not shown) [Compound 205]	90%	100%	–	4.63^[b]	4.60^[c];	–
COC(c1ccc(Cl)cc1)C(C)NC(=O)c1ccccc1Cl (stereo not shown) [Compound 130]	80%	80%	–	–	3.21^[c]	–
COC(c1ccc(Cl)cc1Cl)C(C)NC(=O)c1nccnc1C(F)(F)F (stereo not shown) [Compound 73]	100%	90%	100%	–	–	–
C=CCOC(CNC(=O)c1cccnc1Cl)c1ccc(Cl)cc1 (stereo not shown) [Compound 8]	–	80%	–	–	–	–
COC(CNC(=O)c1nccnc1C(F)(F)F)c1ccc(Cl)cc1Cl (stereo not shown) [Compound 103]	–	90%	90%	–	–	logP [3, 6]: 3.35^[b]; activity (efficacy: egg deposition of fertile eggs) [5]: 80%
COC(c1ccc(Cl)cc1Cl)C1(NC(=O)c2nccnc2C(F)(F)F)CC1 (stereo not shown) [Compound 99]	–	100%	–	–	–	logP [3, 6]: 3.61^[b]
CCC(NC(=O)c1nccnc1C(F)(F)F)C(OC)c1ccc(Cl)cc1Cl (stereo not shown) [Compound 92]	–	90%	90%	–	–	logP [3, 6]: 3.99^[b]
COC(c1ccccc1Cl)C(C)NC(=O)c1ccsc1I (stereo not shown) [Compound 203]	80%	80%	–	3.53^[b]	3.53^[c];	–
CCOC(c1ccc(Cl)cc1Cl)C(C)NC(=O)c1nccnc1C(F)(F)F (stereo not shown) [Compound 107]	–	100%	100%	–	–	logP [3, 6]: 4.16^[b]
Cc1ccsc1C(=O)NCC(OCC1CC1)c1ccc(Cl)cc1 (stereo not shown) [Compound 6]	–	–	–	–	–	activity (efficacy: larval mortality) ([2]; 100 ppm): 90%; logP [3, 7]: 3.87^[a]
C=CCOC(CNC(=O)c1sccc1C)c1ccc(Cl)cc1 (stereo not shown) [Compound 2]	90%	100%	–	–	–	–
COC(CNC(=O)c1sccc1Cl)c1ccc(Cl)cc1 (stereo not shown) [Compound 69]	–	–	–	–	–	activity (efficacy: larval mortality) ([1]; 100 ppm): 90%; activity (efficacy: larval mortality) ([2]; 100 ppm): 90%; logP [3, 6]: 3.41^[b]; logP [3, 10]: 3.39^[c];
COC(c1ccc(Cl)cc1Cl)C(C)NC(=O)c1cccnc1C(F)(F)F (stereo not shown) [Compound 39]	–	–	90%	–	–	activity (efficacy: larval mortality) ([1]; 100 ppm): 100%
COC(c1ccccc1Cl)C(C)NC(=O)c1nccnc1C(F)(F)F (stereo not shown) [Compound 208]	–	80%	90%	3.11^[b]	3.10^[c];	–
COC(c1ccc(Cl)cc1)C(C)NC(=O)c1sccc1Br (stereo not shown) [Compound 65]	–	–	–	–	–	activity (efficacy: larval mortality) ([1]; 100 ppm): 100%; activity (efficacy: larval mortality) ([2]; 100 ppm): 80%; logP [3, 6]: 3.89^[b]; logP [3, 10]: 3.83^[c];
COC(c1ccccc1Cl)C(C)NC(=O)c1cccnc1C(F)(F)F (stereo not shown) [Compound 209]	–	90%	–	3.27^[b]	3.24^[c];	–
COC(c1ccc(F)cc1)C(C)NC(=O)c1ccccc1Cl (stereo not shown) [Compound 191]	–	–	90%	3.02^[b]	2.95^[c];	–
COC(c1ccccc1Cl)C(C)NC(=O)c1nccnc1Cl (stereo not shown) [Compound 213]	–	–	100%	2.76^[b]	2.73^[c];	–
COC(c1ccc(Cl)cc1Cl)C(C)NC(=O)c1cn(C)nc1C(F)F (stereo not shown) [Compound 12]	–	–	100%	–	–	activity (efficacy: larval mortality) ([1]; 100 ppm): 90%
CCOC(c1ccc(Cl)cc1Cl)C(C)NC(=O)c1ccccc1[N+](=O)[O-] (stereo not shown) [Compound 202]	80%	100%	90%	3.83^[b]	3.80^[c];	–
COC(c1ccc(Cl)cc1Cl)C(C)NC(=O)c1ccccc1Cl (stereo not shown) [Compound 30]	–	–	100%	–	–	activity (efficacy: larval mortality) ([1]; 100 ppm): 100%
COC(c1ccc(Cl)cc1)C(C)NC(=O)c1ccccc1C(F)(F)F (stereo not shown) [Compound 128]	90%	80%	–	3.45^[b]	3.35^[c];	–
